# Test results taken from patent US20050032761A1, “Lipid profile modulation” (priority 2001, published 2005).
# Experiments:
# [1] = Oral glucose tolerance test in lean and obese Zucker rats; format: in vivo
# Experimental: (§1) Drug treatment—Drug treatment was commenced when the animals were 6 weeks of age. […] Animals were weighed regularly to allow accurate dosing with drugs, and to follow the progress of weight gain. Food intake for each cage of 4 animals was measured daily. After two weeks of treatment animals underwent an oral glucose tolerance test, which consisted of an overnight fast, followed by an oral glucose load of 2 g/kg body weight at 0900 h. Blood samples were taken by tail-nick at 0, 30 and 120 min after the glucose bolus. […] Glucose concentrations were determined using a hexokinase glucose assay kit (Sigma, Poole, UK), for which the inter- and intra-assay coefficients of variation were both <2%.
# [2] = Food intake and body weight in lean and obese Zucker rats treated with carbenoxolone; format: in vivo; conditions: lean or obese animals; 50 mg/kg by gavage daily, three weeks
# Experimental: Groups of eight 5-week-old male obese and lean Zucker rats (Harlan Orlac, Bicester, UK) were characterised by phenotype; maintained under controlled conditions of light (on 0800 h-2000 h) and temperature (21° C.) and allowed free access to standard rat chow. (Special Diet Services, Witham, UK) and drinking water. Drug treatment—Drug treatment was commenced when the animals were 6 weeks of age. […] Animals were weighed regularly to allow accurate dosing with drugs, and to follow the progress of weight gain. Food intake for each cage of 4 animals was measured daily. After two weeks of treatment animals underwent an oral glucose tolerance test, which consisted of an overnight fast, followed by an oral glucose load of 2 g/kg body weight at 0900 h. Blood samples were taken by tail-nick at 0, 30 and 120 min after the glucose bolus.
# [3] = Non-fasting plasma lipid levels in lean and obese Zucker rats; format: in vivo
# Experimental: Drug treatment—Drug treatment was commenced when the animals were 6 weeks of age. […] Animals were weighed regularly to allow accurate dosing with drugs, and to follow the progress of weight gain. Food intake for each cage of 4 animals was measured daily. After two weeks of treatment animals underwent an oral glucose tolerance test, which consisted of an overnight fast, followed by an oral glucose load of 2 g/kg body weight at 0900 h. Blood samples were taken by tail-nick at 0, 30 and 120 min after the glucose bolus. […] Lipid levels were measured in plasma prepared from terminal blood samples collected at 0900-1100 h. Triglycerides, total cholesterol and HDL cholesterol were measured using […] (TG, CHOL and HDL C-plus respectively) from Roche Diagnostics, Mannheim, Germany. Non-esterified fatty acids (NEFAs) were measured using the Wako NEFA C enzymatic assay (Alpha Laboratories Ltd, Hampshire, UK).
# 11β-HSD1 [4] = target: T1, 11β-HSD1 (Homo sapiens, UniProt P28845); conditions: humans; cited from earlier work
# T1 construct: host or cells: human subjects in vivo
# T1 sequence (P28845 whole entry): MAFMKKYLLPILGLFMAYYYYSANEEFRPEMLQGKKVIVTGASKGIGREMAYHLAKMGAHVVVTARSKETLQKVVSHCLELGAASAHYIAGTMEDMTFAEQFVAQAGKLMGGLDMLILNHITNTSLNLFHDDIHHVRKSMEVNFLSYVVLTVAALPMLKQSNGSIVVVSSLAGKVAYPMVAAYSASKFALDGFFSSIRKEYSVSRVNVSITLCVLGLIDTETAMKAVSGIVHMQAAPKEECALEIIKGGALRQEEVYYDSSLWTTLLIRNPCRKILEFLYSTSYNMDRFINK
# [5] = Hypothalamic pituitary adrenal axis: adrenal weight and plasma corticosterone in Zucker rats; format: in vivo
# Experimental: as §1, with “Plasma assays—Corticosterone levels” for “Glucose concentrations”, “measured in plasma prepared from terminal blood samples collected at 0900-1100 h” for “determined”, “an in-house radioimmunoassay (74). The” for “a hexokinase glucose assay kit (Sigma, Poole, UK), for which the”, “were<10%.” for “were both <2%.”
# 5β-reductase [6] = target: T2, 5β-reductase (Rattus norvegicus, UniProt P31210); experiment: Hepatic 5β-reductase activity in liver cytosol after carbenoxolone administration; format: in vivo, Zucker rats; conditions: obese animals
# T2 construct: conversion of [^3H]-corticosterone to [^3H]-5β-tetrahydrocorticosterone in liver cytosol preparations; from tissue; host or cells: Zucker rat liver cytosol
# T2 sequence (P31210 1-326): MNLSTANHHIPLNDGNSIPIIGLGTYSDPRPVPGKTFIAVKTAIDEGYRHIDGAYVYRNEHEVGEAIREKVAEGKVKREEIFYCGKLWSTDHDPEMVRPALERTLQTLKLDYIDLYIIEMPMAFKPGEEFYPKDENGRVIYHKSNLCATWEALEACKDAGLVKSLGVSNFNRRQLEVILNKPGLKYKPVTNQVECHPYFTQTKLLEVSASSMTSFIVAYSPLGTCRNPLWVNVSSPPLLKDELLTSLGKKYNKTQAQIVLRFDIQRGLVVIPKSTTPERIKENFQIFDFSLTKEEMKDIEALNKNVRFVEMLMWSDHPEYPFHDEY
# Experimental: (§2) Drug treatment—Drug treatment was commenced when the animals were 6 weeks of age. […] Animals were weighed regularly to allow accurate dosing with drugs, and to follow the progress of weight gain. Food intake for each cage of 4 animals was measured daily. After two weeks of treatment animals underwent an oral glucose tolerance test, which consisted of an overnight fast, followed by an oral glucose load of 2 g/kg body weight at 0900 h. Blood samples were taken by tail-nick at 0, 30 and 120 min after the glucose bolus.
# 5β-Reductase activity in the liver was assessed by the conversion of [^3H]-corticosterone to [^3H]-5β-tetrahydrocorticosterone in liver cytosol preparations. The sub-cellular localisation and cofactor preference of 11β-HSD1 and 5β-reductase differ such that the enzyme activities can be measured independently of one another. Liver cytosol was prepared by repeated centrifugation according to the method of (Fleischer & Kervina 1974). Enzyme activity was measured by incubating cytosol (100 μg protein/ml) in duplicate at 37° C., in phosphate buffer (40 mM Na2PO4, 320 mM sucrose, 1 mM dithiothreitol, pH 7.5) containing NADPH (1 mM) and [^3H]-corticosterone (150 nM). […] Steroids were separated by HPLC using a reverse phase C8 column at 10° C., and quantified by on-line liquid scintillation counting. […]
# [7] = Carbenoxolone randomised double-blind crossover study, fasting plasma lipids; conditions: men with type 2 diabetes mellitus and healthy controls, vs placebo
# From the text: Fasting levels of plasma lipids are shown.
# 11β-HSD1 [8] = target: T3, 11β-HSD1 (Rattus norvegicus, UniProt P16232); experiment: 11β-HSD1 activity in tissue homogenates after carbenoxolone administration; parameters: from tissue; host or cells: Zucker rat liver, quadriceps skeletal muscle, subcutaneous lumbar fat, omental fat homogenates; species or system Zucker rats; conditions: ex vivo, liver; lean and obese animals
# T3 sequence (P16232 whole entry): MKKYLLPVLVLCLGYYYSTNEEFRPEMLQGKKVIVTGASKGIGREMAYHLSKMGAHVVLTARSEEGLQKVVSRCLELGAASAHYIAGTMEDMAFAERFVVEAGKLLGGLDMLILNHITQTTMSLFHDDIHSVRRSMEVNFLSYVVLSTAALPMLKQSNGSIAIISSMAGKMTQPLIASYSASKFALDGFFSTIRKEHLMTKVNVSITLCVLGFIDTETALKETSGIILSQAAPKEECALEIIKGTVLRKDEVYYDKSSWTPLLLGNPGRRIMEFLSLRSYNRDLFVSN
# Experimental: as §2
# Measurement of enzyme activities in vitro—11β-HSD1 activity was measured in homogenates of tissues by incubating in duplicate at 37° C., in Krebs Ringer buffer containing glucose (0.2%), NADP (2 mM) and 1,2,6,7-[^3H]4-corticosterone (100 nM). Conditions were optimised for each tissue to ensure first order kinetics, by adjusting protein concentrations as follows: 10 μg/ml for liver; 1.5 mg/ml for quadriceps skeletal muscle; 0.5 mg/ml for subcutaneous lumbar fat and 1 mg/ml for omental fat. […] Steroids were separated by HPLC using a reverse phase μ-Bondapak C18 column at 20° C. and quantified by on-line liquid scintillation counting. No peaks other than ^3H-corticosterone and ^3H-11-dehydrocorticosterone were detected under these conditions.
# 11β-HSD1 [9] = target: T3, 11β-HSD1; experiment: Incubation of beclomethasone with homogenised rat liver; format: in vitro ADME; parameters: incubation of beclomethasone with homogenised rat liver; from tissue; host or cells: homogenised rat liver; conditions: HPLC, UV 254 nm
# 5β-reductase [10] = target: T4, 5β-reductase (Homo sapiens, UniProt P51857); conditions: reported (70); cited from earlier work
# T4 sequence (P51857 1-326): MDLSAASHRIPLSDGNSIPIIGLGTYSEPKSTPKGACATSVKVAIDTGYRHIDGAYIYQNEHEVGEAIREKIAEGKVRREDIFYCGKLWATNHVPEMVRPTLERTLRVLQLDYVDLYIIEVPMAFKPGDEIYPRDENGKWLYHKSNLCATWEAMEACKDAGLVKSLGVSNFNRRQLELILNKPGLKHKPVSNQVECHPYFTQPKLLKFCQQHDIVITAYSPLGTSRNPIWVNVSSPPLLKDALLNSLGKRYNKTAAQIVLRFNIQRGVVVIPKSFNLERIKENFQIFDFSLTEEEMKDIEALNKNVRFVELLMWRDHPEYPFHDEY
# [11] = system: glucocorticoid receptor-mediated response in human skin; experiment: Skin blanching after topical application to forearm skin; format: in vivo; conditions: applied together with beclomethasone, 12 healthy humans
# Experimental: The intensity of skin blanching was recorded the following day by two observers who were blind to the order of application of steroid solutions, as described (80).
# [12] = non-fasting plasma, obese animals
compound,measurement,setting,value
CC1(C)[C@@H](OC(=O)CCC(=O)O)CC[C@]2(C)[C@H]3C(=O)C=C4[C@@H]5C[C@@](C)(C(=O)O)CC[C@]5(C)CC[C@@]4(C)[C@]3(C)CC[C@@H]12 [Carbenoxolone],plasma insulin,"[1]; 30 min after glucose, both lean and obese animals",increased
same,plasma insulin,"[1]; 120 min after glucose, obese animals",increased
same,glucose tolerance,[1]; Zucker rats,no effect
same,plasma insulin,"[1]; fasting state, both lean and obese animals",increased
same,plasma glucose,"[1]; lean and obese, fasting and after oral glucose load, two weeks of treatment",no significant effect
same,body weight,[2],no effect
same,food intake,[2],no effect
same,non-fasting plasma NEFAs,"[3]; all groups, lean and obese",not different
same,total cholesterol,"[3]; non-fasting plasma, lean and obese rats, three weeks of treatment",not affected
same,HDL cholesterol,[3]; [12],increased
same,triglycerides,[3]; [12],reduced
same,amount of glucose required to maintain normoglycemia,11β-HSD1 [4],increases
same,forearm glucose uptake,11β-HSD1 [4],without altering
same,plasma corticosterone levels,"[5]; lean and obese, terminal blood, trend for carbenoxolone to increase",no statistically significant differences
same,adrenal weight,[5]; lean animals,no effect
same,adrenal weight (adrenal hypertrophy),[5]; obese rats,ameliorated
same,hepatic 5β-reductase activity (conversion of corticosterone to 5β-tetrahydrocorticosterone),5β-reductase [6],exacerbated the increase
same,HDL (high density lipoprotein) cholesterol concentrations,[7],raised
same,total cholesterol,[7],did not affect
same,triglyceride concentrations,[7],lowered
same,hepatic 11β-HSD1 activity (conversion of corticosterone to 11-dehydrocorticosterone),11β-HSD1 [8],inhibition
C[C@H]1C[C@H]2[C@@H]3CCC4=CC(=O)C=C[C@]4(C)[C@@]3(Cl)[C@@H](O)C[C@]2(C)[C@@]1(O)C(=O)CO [beclomethasone],conversion of beclomethasone to 11-dehydrobeclomethasone,11β-HSD1 [9],substrate
CC1(C)[C@@H](O)CC[C@]2(C)[C@H]3C(=O)C=C4[C@@H]5C[C@@](C)(C(=O)O)CC[C@]5(C)CC[C@@]4(C)[C@]3(C)CC[C@@H]12 [Glycyrrhetinic acid],inhibition of 5β-reductase,5β-reductase [10],inhibit
same,blanching response to beclomethasone (area under the dose-response curve),[11],reduced
